Paper PMC4844702, “Selective inhibition of the kinase DYRK1A by targeting its folding process” (Nature Communications, 2016)

How the values were obtained:
MLK1_Cascade = target: T1, MLK1_Cascade (Homo sapiens, UniProt P80192); assay: Kinase panel (Carna); assay type: biochemical
T1 construct: purchased Carna Biosciences
From the text: (§1) Detailed information on the assay conditions is available on the website of Carna Biosciences (http://www.carnabio.com).

CGK2 = target: T2, CGK2 (Homo sapiens, UniProt Q13237); assay: Kinase panel (Carna); assay type: biochemical
T2 construct: purchased Carna Biosciences
From the text: as §1

PKCγ = target: T3, PKCγ (Homo sapiens, UniProt P05129); assay: Kinase panel (Carna); assay type: biochemical
T3 construct: purchased Carna Biosciences
From the text: as §1

QIK = target: T4, QIK (Homo sapiens, UniProt Q9H0K1); assay: Kinase panel (Carna); assay type: biochemical
T4 construct: purchased Carna Biosciences

AKT3 = target: T5, AKT3 (Homo sapiens, UniProt Q9Y243); assay: Kinase panel (Carna); assay type: biochemical
T5 construct: purchased Carna Biosciences
From the text: as §1

PASK = target: T6, PASK (Homo sapiens, UniProt Q96RG2); assay: Kinase panel (Carna); assay type: biochemical
T6 construct: purchased Carna Biosciences
From the text: as §1

TYRO3 = target: T7, TYRO3 (Homo sapiens, UniProt Q06418); assay: Kinase panel (Carna); assay type: biochemical
T7 construct: purchased Carna Biosciences
From the text: as §1

NEK2 = target: T8, NEK2 (Homo sapiens, UniProt P51955); assay: Kinase panel (Carna); assay type: biochemical
T8 construct: purchased Carna Biosciences

PKCη = target: T9, PKCη (Homo sapiens, UniProt P24723); assay: Kinase panel (Carna); assay type: biochemical
T9 construct: purchased Carna Biosciences
From the text: as §1

MAP3K2_Cascade = target: T10, MAP3K2_Cascade (Homo sapiens, UniProt Q9Y2U5); assay: Kinase panel (Carna); assay type: biochemical
T10 construct: purchased Carna Biosciences
From the text: as §1

BMX = target: T11, BMX (Homo sapiens, UniProt P51813); assay: Kinase panel (Carna); assay type: biochemical
T11 construct: purchased Carna Biosciences
From the text: as §1

HIPK4 = target: T12, HIPK4 (Homo sapiens, UniProt Q8NE63); assay: Kinase panel (Carna); assay type: biochemical
T12 construct: purchased Carna Biosciences
From the text: as §1

NEK4 = target: T13, NEK4 (Homo sapiens, UniProt P51957); assay: Kinase panel (Carna); assay type: biochemical
T13 construct: purchased Carna Biosciences

PKACβ = target: T14, PKACβ (Homo sapiens, UniProt P22694); assay: Kinase panel (Carna); assay type: biochemical
T14 construct: purchased Carna Biosciences

EPHA4 = target: T15, EPHA4 (Homo sapiens, UniProt P54764); assay: Kinase panel (Carna); assay type: biochemical
T15 construct: purchased Carna Biosciences

PAK6 = target: T16, PAK6 (Homo sapiens, UniProt Q9NQU5); assay: Kinase panel (Carna); assay type: biochemical
T16 construct: purchased Carna Biosciences
From the text: as §1

DLK_Cascade = target: T17, DLK_Cascade (Homo sapiens, UniProt Q12852); assay: Kinase panel (Carna); assay type: biochemical
T17 construct: purchased Carna Biosciences
From the text: as §1

CaMK2γ = target: T18, CaMK2γ (Homo sapiens, UniProt Q13555); assay: Kinase panel (Carna); assay type: biochemical
T18 construct: purchased Carna Biosciences

MST2 = target: T19, MST2 (Homo sapiens, UniProt Q13188); assay: Kinase panel (Carna); assay type: biochemical
T19 construct: purchased Carna Biosciences
From the text: as §1

MSK2 = target: T20, MSK2 (Homo sapiens, UniProt O75676); assay: Kinase panel (Carna); assay type: biochemical
T20 construct: purchased Carna Biosciences
From the text: as §1

MARK3 = target: T21, MARK3 (Homo sapiens, UniProt P27448); assay: Kinase panel (Carna); assay type: biochemical
T21 construct: purchased Carna Biosciences
From the text: as §1

MLK2_Cascade = target: T22, MLK2_Cascade (Homo sapiens, UniProt Q02779); assay: Kinase panel (Carna); assay type: biochemical
T22 construct: purchased Carna Biosciences
From the text: as §1

HGK = target: T23, HGK (Homo sapiens, UniProt O95819); assay: Kinase panel (Carna); assay type: biochemical
T23 construct: purchased Carna Biosciences

TNIK = target: T24, TNIK (Homo sapiens, UniProt Q9UKE5); assay: Kinase panel (Carna); assay type: biochemical
T24 construct: purchased Carna Biosciences
From the text: as §1

MLK3_Cascade = target: T25, MLK3_Cascade (Homo sapiens, UniProt Q16584); assay: Kinase panel (Carna); assay type: biochemical
T25 construct: purchased Carna Biosciences
From the text: as §1

SPHK2 = target: T26, SPHK2 (Homo sapiens, UniProt Q9NRA0); assay: Kinase panel (Carna); assay type: biochemical
T26 construct: purchased Carna Biosciences
From the text: as §1

FGFR4 = target: T27, FGFR4 (Homo sapiens, UniProt P22455); assay: Kinase panel (Carna); assay type: biochemical
T27 construct: purchased Carna Biosciences

CK1δ = target: T28, CK1δ (Homo sapiens, UniProt P48730); assay: Kinase panel (Carna); assay type: biochemical
T28 construct: purchased Carna Biosciences

WNK3 = target: T29, WNK3 (Homo sapiens, UniProt Q9BYP7); assay: Kinase panel (Carna); assay type: biochemical
T29 construct: purchased Carna Biosciences
From the text: as §1

MAP4K2 = target: T30, MAP4K2 (Homo sapiens, UniProt Q12851); assay: Kinase panel (Carna); assay type: biochemical
T30 construct: purchased Carna Biosciences
From the text: as §1

RSK4 = target: T31, RSK4 (Homo sapiens, UniProt Q9UK32); assay: Kinase panel (Carna); assay type: biochemical
T31 construct: purchased Carna Biosciences

SLK = target: T32, SLK (Homo sapiens, UniProt Q9H2G2); assay: Kinase panel (Carna); assay type: biochemical
T32 construct: purchased Carna Biosciences
From the text: as §1

other 13 kinases = assay: Endogenous kinases in intact HEK293 cells, western blot; assay type: cell-based; details: 3 days
From the text: The results are presented as means±s.d. (n=4). […] Representative data from the duplicate experiments are shown.

FLT4 = target: T33, FLT4 (Homo sapiens, UniProt P35916); assay: Kinase panel (Carna); assay type: biochemical
T33 construct: purchased Carna Biosciences
From the text: as §1

PEK = target: T34, PEK (Homo sapiens, UniProt Q9NZJ5); assay: Kinase panel (Carna); assay type: biochemical
T34 construct: purchased Carna Biosciences
From the text: as §1

AurC = target: T35, AurC (Homo sapiens, UniProt Q9UQB9); assay: Kinase panel (Carna); assay type: biochemical
T35 construct: purchased Carna Biosciences
From the text: as §1

LYNa = target: T36, LYNa (Homo sapiens, UniProt P07948); assay: Kinase panel (Carna); assay type: biochemical
T36 construct: purchased Carna Biosciences
From the text: as §1

PAK5 = target: T37, PAK5 (Homo sapiens, UniProt Q9P286); assay: Kinase panel (Carna); assay type: biochemical
T37 construct: purchased Carna Biosciences
From the text: as §1

BLK = target: T38, BLK (Homo sapiens, UniProt P51451); assay: Kinase panel (Carna); assay type: biochemical
T38 construct: purchased Carna Biosciences
From the text: as §1

RSK1 = target: T39, RSK1 (Homo sapiens, UniProt Q15418); assay: Kinase panel (Carna); assay type: biochemical
T39 construct: purchased Carna Biosciences

CDC2/CycB1 = target: T40, CDC2/CycB1 (Homo sapiens, UniProt P06493); assay: Kinase panel (Carna); assay type: biochemical
T40 construct: purchased Carna Biosciences

PKR = target: T41, PKR (Homo sapiens, UniProt P19525); assay: Kinase panel (Carna); assay type: biochemical
T41 construct: purchased Carna Biosciences

EPHB2 = target: T42, EPHB2 (Homo sapiens, UniProt P29323); assay: Kinase panel (Carna); assay type: biochemical
T42 construct: purchased Carna Biosciences
From the text: as §1

SYK = target: T43, SYK (Homo sapiens, UniProt P43405); assay: Kinase panel (Carna); assay type: biochemical
T43 construct: purchased Carna Biosciences
From the text: as §1

T39 sequence (Q15418 whole entry): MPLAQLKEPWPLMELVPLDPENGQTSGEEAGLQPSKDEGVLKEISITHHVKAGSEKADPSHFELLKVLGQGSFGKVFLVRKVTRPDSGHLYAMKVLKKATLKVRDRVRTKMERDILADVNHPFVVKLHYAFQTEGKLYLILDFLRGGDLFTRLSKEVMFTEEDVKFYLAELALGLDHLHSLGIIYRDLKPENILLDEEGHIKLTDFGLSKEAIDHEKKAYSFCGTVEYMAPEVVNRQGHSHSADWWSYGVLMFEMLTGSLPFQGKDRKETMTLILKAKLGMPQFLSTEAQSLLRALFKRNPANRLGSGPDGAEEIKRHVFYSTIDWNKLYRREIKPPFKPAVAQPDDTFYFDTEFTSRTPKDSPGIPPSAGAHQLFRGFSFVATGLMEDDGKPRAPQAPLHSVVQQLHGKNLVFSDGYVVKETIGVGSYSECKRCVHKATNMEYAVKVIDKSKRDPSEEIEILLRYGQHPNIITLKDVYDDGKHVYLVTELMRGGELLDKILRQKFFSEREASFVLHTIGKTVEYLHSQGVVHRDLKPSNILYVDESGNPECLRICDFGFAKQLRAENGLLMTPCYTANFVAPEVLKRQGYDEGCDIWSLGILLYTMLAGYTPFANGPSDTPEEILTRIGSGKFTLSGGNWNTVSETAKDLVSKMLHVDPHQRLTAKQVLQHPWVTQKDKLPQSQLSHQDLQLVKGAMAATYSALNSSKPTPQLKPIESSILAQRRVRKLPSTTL
T10 sequence (Q9Y2U5 whole entry): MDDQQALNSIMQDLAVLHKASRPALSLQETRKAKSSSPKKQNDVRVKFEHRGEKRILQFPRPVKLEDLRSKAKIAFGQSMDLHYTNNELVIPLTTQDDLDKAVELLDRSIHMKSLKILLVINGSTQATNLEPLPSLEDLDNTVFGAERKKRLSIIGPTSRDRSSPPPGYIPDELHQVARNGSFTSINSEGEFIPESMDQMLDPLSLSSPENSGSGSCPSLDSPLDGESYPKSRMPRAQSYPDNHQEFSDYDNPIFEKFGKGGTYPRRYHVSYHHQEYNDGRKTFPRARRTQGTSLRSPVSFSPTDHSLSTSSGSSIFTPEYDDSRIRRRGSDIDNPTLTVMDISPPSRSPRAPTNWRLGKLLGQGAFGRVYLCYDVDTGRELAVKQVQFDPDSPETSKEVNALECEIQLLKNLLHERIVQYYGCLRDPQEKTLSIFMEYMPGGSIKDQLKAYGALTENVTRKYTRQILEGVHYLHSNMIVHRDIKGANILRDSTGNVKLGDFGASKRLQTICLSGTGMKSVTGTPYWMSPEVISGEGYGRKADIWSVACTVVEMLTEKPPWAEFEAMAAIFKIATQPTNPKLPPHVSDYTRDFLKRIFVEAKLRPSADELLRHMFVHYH
T5 sequence (Q9Y243 whole entry): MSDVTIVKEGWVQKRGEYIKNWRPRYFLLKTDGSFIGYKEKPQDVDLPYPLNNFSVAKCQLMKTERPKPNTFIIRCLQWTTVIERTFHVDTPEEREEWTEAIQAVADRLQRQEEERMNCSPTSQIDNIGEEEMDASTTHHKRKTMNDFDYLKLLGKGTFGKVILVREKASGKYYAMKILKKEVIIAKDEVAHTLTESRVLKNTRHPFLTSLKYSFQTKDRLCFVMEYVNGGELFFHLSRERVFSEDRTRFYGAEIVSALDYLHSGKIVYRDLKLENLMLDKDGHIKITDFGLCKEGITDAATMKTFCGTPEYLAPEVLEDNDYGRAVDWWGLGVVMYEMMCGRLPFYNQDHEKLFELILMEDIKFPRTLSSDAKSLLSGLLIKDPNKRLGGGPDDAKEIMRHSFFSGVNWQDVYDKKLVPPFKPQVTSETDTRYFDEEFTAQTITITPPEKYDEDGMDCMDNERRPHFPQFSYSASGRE
T27 sequence (P22455 22-802): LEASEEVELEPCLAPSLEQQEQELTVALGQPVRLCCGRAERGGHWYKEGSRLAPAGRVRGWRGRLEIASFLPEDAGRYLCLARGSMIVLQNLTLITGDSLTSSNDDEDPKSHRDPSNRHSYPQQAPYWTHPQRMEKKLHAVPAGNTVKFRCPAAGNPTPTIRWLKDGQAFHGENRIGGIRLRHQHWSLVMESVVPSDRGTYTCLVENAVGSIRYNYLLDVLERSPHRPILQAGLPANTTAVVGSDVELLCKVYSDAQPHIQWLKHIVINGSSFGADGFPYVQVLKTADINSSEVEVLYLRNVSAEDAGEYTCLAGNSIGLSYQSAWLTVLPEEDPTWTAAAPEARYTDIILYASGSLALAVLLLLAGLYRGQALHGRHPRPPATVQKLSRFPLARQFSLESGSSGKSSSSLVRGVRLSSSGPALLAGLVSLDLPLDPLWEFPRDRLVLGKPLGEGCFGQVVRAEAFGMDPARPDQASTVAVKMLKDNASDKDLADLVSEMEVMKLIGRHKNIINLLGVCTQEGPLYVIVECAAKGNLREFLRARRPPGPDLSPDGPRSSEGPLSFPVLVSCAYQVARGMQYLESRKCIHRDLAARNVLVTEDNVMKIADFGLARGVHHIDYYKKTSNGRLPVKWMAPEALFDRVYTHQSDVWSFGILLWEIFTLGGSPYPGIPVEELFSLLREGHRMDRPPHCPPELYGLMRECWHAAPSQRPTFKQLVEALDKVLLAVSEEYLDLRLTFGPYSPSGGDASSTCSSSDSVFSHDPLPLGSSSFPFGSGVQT
T6 sequence (Q96RG2 whole entry): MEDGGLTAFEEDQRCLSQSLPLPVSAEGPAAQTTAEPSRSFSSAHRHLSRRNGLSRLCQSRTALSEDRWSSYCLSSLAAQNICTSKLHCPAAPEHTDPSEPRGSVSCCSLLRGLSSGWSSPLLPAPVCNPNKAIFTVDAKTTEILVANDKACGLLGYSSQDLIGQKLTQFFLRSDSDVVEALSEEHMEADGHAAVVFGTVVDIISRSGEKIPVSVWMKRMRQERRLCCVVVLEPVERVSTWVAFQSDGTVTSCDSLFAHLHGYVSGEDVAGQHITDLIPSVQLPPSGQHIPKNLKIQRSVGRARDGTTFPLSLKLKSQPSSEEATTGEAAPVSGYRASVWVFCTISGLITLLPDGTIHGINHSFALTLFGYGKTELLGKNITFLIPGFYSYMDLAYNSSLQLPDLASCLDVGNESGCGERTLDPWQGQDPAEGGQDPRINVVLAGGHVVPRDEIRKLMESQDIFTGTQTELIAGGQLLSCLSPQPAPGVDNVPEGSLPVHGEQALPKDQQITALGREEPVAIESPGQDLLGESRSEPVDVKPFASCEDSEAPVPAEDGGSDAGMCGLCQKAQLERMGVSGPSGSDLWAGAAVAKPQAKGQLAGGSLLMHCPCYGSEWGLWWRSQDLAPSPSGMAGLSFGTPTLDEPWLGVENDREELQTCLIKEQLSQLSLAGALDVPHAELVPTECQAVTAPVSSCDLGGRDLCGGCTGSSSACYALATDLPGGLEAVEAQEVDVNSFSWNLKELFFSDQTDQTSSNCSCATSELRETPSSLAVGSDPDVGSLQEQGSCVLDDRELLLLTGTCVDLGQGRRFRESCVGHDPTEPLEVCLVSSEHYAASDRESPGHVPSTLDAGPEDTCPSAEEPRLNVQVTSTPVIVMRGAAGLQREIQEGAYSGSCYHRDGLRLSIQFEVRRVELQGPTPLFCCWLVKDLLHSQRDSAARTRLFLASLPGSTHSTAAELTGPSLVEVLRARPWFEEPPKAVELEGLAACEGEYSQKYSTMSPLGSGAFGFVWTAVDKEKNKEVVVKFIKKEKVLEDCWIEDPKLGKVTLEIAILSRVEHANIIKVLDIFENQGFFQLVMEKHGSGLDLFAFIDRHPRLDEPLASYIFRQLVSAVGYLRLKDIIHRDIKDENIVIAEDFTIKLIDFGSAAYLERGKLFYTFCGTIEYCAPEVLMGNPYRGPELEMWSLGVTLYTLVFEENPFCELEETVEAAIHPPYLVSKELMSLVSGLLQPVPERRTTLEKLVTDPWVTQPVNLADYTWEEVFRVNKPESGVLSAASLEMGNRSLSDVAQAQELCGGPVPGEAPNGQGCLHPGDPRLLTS
T28 sequence (P48730 whole entry): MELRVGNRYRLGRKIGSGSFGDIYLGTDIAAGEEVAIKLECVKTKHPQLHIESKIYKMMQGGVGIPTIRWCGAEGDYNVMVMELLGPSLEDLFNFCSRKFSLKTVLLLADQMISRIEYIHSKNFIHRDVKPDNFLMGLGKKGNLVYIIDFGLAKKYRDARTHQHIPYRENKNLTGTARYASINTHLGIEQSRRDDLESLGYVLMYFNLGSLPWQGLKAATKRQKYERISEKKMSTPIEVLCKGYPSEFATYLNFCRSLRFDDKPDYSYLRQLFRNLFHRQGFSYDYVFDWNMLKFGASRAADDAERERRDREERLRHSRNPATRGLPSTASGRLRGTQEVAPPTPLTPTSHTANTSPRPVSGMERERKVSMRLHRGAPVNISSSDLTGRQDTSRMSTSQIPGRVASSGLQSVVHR

Question: Which inhibition at 10 µM (MLK1_Cascade) does the source give for `COc1ccc(/C=C2\SC(=S)NC2=O)cc1C#C[Si](C)(C)C` [FINDY] here?
Answer: 48.7%

Question: What about the inhibition at 10 µM (CGK2) of the same compound?
Answer: 14.6%

Question: And the inhibition at 10 µM (PKCγ)?
Answer: 4.1%

Question: And the inhibition at 10 µM (QIK)?
Answer: -7.7%

Question: What about the inhibition at 10 µM (AKT3) of the same compound?
Answer: 18.9%

Question: And the inhibition at 10 µM (PASK)?
Answer: 11.9%

Question: What about the inhibition at 10 µM (TYRO3) of the same compound?
Answer: 2.9%

Question: And the inhibition at 10 µM (NEK2)?
Answer: -5.1%

Question: And the inhibition at 10 µM (PKCη)?
Answer: -12.7%

Question: What about the inhibition at 10 µM (MAP3K2_Cascade) of the same compound?
Answer: 55.8%

Question: What about the inhibition at 10 µM (BMX) of the same compound?
Answer: 10.5%

Question: What about the inhibition at 10 µM (HIPK4) of the same compound?
Answer: 16.6%

Question: What about the inhibition at 10 µM (NEK4) of the same compound?
Answer: 6.8%

Question: And the inhibition at 10 µM (PKACβ)?
Answer: 65.3%

Question: And the inhibition at 10 µM (EPHA4)?
Answer: 16.3%

Question: And the inhibition at 10 µM (PAK6)?
Answer: -145%

Question: And the inhibition at 10 µM (DLK_Cascade)?
Answer: 23.5%

Question: And the inhibition at 10 µM (CaMK2γ)?
Answer: -4.6%

Question: What about the inhibition at 10 µM (MST2) of the same compound?
Answer: -5.7%

Question: What about the inhibition at 10 µM (MSK2) of the same compound?
Answer: 20.8%

Question: What about the inhibition at 10 µM (MARK3) of the same compound?
Answer: 50.6%

Question: What about the inhibition at 10 µM (MLK2_Cascade) of the same compound?
Answer: 41%

Question: And the inhibition at 10 µM (HGK)?
Answer: 13.4%

Question: What about the inhibition at 10 µM (TNIK) of the same compound?
Answer: 10.7%

Question: And the inhibition at 10 µM (MLK3_Cascade)?
Answer: 40.5%

Question: And the inhibition at 10 µM (SPHK2)?
Answer: 4.9%

Question: What about the inhibition at 10 µM (FGFR4) of the same compound?
Answer: 6.9%

Question: What about the inhibition at 10 µM (CK1δ) of the same compound?
Answer: 29.1%

Question: And the inhibition at 10 µM (WNK3)?
Answer: 18.9%

Question: What about the inhibition at 10 µM (MAP4K2) of the same compound?
Answer: 3.3%

Question: What about the inhibition at 10 µM (RSK4) of the same compound?
Answer: 29.6%

Question: What about the inhibition at 10 µM (SLK) of the same compound?
Answer: -35%

Question: What about the “endogenous expression of the other 13 kinases” value (other 13 kinases) of the same compound?
Answer: no alteration

Question: And the inhibition at 10 µM (FLT4)?
Answer: 9.8%

Question: And the inhibition at 10 µM (PEK)?
Answer: 13%

Question: And the inhibition at 10 µM (AurC)?
Answer: 40.1%

Question: What about the inhibition at 10 µM (LYNa) of the same compound?
Answer: 4%

Question: What about the inhibition at 10 µM (PAK5) of the same compound?
Answer: -7%

Question: And the inhibition at 10 µM (BLK)?
Answer: 25.5%

Question: And the inhibition at 10 µM (RSK1)?
Answer: 39.8%

Question: And the inhibition at 10 µM (CDC2/CycB1)?
Answer: 43.4%

Question: What about the inhibition at 10 µM (PKR) of the same compound?
Answer: 5.8%

Question: And the inhibition at 10 µM (EPHB2)?
Answer: 10.1%

Question: What about the inhibition at 10 µM (SYK) of the same compound?
Answer: 72.8%
